Reference: ChEMBL document CHEMBL3046819, “Synthesis and antimicrobial activity of new pyridine derivatives-I” (2011)

Assays:
Format in all cases: functional
Details in all cases: read-out: IZ
Candida albicans [1] = experiment: Antifungal activity against Candida albicans ATCC 10231 at 100 ug/ml by cup-plate method
Bacillus subtilis [2] = experiment: Antibacterial activity against Bacillus subtilis ATCC 6633 at 100 ug/ml by cup-plate method
Pseudomonas aeruginosa [3] = experiment: Antibacterial activity against Pseudomonas aeruginosa ATCC 9027 at 100 ug/ml by cup-plate method
Escherichia coli [4] = experiment: Antibacterial activity against Escherichia coli ATCC 25922 at 100 ug/ml by cup-plate method
Pseudomonas aeruginosa [5] = experiment: Antibacterial activity against Pseudomonas aeruginosa ATCC 9027 at 200 ug/ml by cup-plate method
Candida albicans [6] = experiment: Antifungal activity against Candida albicans ATCC 10231 at 200 ug/ml by cup-plate method
Staphylococcus aureus [7] = experiment: Antibacterial activity against Staphylococcus aureus ATCC 9144 at 200 ug/ml by cup-plate method
Bacillus subtilis [8] = experiment: Antibacterial activity against Bacillus subtilis ATCC 6633 at 200 ug/ml by cup-plate method
Escherichia coli [9] = experiment: Antibacterial activity against Escherichia coli ATCC 25922 at 200 ug/ml by cup-plate method
Staphylococcus aureus [10] = experiment: Antibacterial activity against Staphylococcus aureus ATCC 9144 at 100 ug/ml by cup-plate method

In the case of `Cc1ccc2sc(Nc3ncccc3C(=O)N3CCNC(Cl)C3Cl)nc2c1` (stereo not given), the zone of inhibition at 100 µg/mL (Candida albicans [1]) is reported as 2 mm, the zone of inhibition at 100 µg/mL (Bacillus subtilis [2]) is reported as 7 mm and the zone of inhibition at 100 µg/mL (Pseudomonas aeruginosa [3]) is reported as 6 mm. It also gave a zone of inhibition at 100 µg/mL (Escherichia coli [4]) of 5 mm, a zone of inhibition at 200 µg/mL (Pseudomonas aeruginosa [5]) of 8 mm and a zone of inhibition at 200 µg/mL (Candida albicans [6]) of 3 mm. The zone of inhibition at 200 µg/mL (Staphylococcus aureus [7]) was 10 mm, the zone of inhibition at 200 µg/mL (Bacillus subtilis [8]) was 7 mm and the zone of inhibition at 200 µg/mL (Escherichia coli [9]) was 7 mm. For the same compound, the zone of inhibition at 100 µg/mL (Staphylococcus aureus [10]) was 8 mm.

For `O=C(c1cccnc1Nc1nc2c([N+](=O)[O-])cccc2s1)N1CCN(CCO)CC1`, the zone of inhibition at 100 µg/mL (Candida albicans [1]) was 4 mm, the zone of inhibition at 100 µg/mL (Bacillus subtilis [2]) was 8 mm and the zone of inhibition at 100 µg/mL (Pseudomonas aeruginosa [3]) was 8 mm. For the same compound, the zone of inhibition at 100 µg/mL (Escherichia coli [4]) was 5 mm, the zone of inhibition at 200 µg/mL (Pseudomonas aeruginosa [5]) was 11 mm and the zone of inhibition at 200 µg/mL (Candida albicans [6]) was 7 mm. For the same compound, the zone of inhibition at 200 µg/mL (Staphylococcus aureus [7]) was 12 mm, the zone of inhibition at 200 µg/mL (Bacillus subtilis [8]) was 9 mm and the zone of inhibition at 200 µg/mL (Escherichia coli [9]) was 9 mm. For the same compound, the zone of inhibition at 100 µg/mL (Staphylococcus aureus [10]) was 8 mm.

In the case of `Cc1ccc2nc(Nc3ncccc3C(=O)N3CCN(CCO)CC3)sc2c1`, the zone of inhibition at 100 µg/mL (Candida albicans [1]) is reported as 2 mm, the zone of inhibition at 100 µg/mL (Bacillus subtilis [2]) is reported as 0 mm and the zone of inhibition at 100 µg/mL (Pseudomonas aeruginosa [3]) is reported as 0 mm. The zone of inhibition at 100 µg/mL (Escherichia coli [4]) was 0 mm, the zone of inhibition at 200 µg/mL (Pseudomonas aeruginosa [5]) was 0 mm and the zone of inhibition at 200 µg/mL (Candida albicans [6]) was 5 mm. For the same compound, the zone of inhibition at 200 µg/mL (Staphylococcus aureus [7]) was 3 mm, the zone of inhibition at 200 µg/mL (Bacillus subtilis [8]) was 0 mm and the zone of inhibition at 200 µg/mL (Escherichia coli [9]) was 6 mm. The zone of inhibition at 100 µg/mL (Staphylococcus aureus [10]) was 0 mm.

`O=C(c1cccnc1Nc1nc2ccc([N+](=O)[O-])cc2s1)N1CCNC(Cl)C1Cl` (stereo not given) was tested, and the zone of inhibition at 100 µg/mL (Candida albicans [1]) was 0 mm, the zone of inhibition at 100 µg/mL (Bacillus subtilis [2]) was 7 mm and the zone of inhibition at 100 µg/mL (Pseudomonas aeruginosa [3]) was 6 mm. For the same compound, the zone of inhibition at 100 µg/mL (Escherichia coli [4]) was 6 mm, the zone of inhibition at 200 µg/mL (Pseudomonas aeruginosa [5]) was 8 mm and the zone of inhibition at 200 µg/mL (Candida albicans [6]) was 3 mm. It also gave a zone of inhibition at 200 µg/mL (Staphylococcus aureus [7]) of 8 mm, a zone of inhibition at 200 µg/mL (Bacillus subtilis [8]) of 7 mm and a zone of inhibition at 200 µg/mL (Escherichia coli [9]) of 6 mm. It also gave a zone of inhibition at 100 µg/mL (Staphylococcus aureus [10]) of 8 mm.

Compound `O=C(c1cccnc1Nc1nc2c(Cl)cccc2s1)N1CCN(CCO)CC1` has a zone of inhibition at 100 µg/mL (Candida albicans [1]) of 3 mm, a zone of inhibition at 100 µg/mL (Bacillus subtilis [2]) of 7 mm and a zone of inhibition at 100 µg/mL (Pseudomonas aeruginosa [3]) of 7 mm. It also gave a zone of inhibition at 100 µg/mL (Escherichia coli [4]) of 6 mm, a zone of inhibition at 200 µg/mL (Pseudomonas aeruginosa [5]) of 9 mm and a zone of inhibition at 200 µg/mL (Candida albicans [6]) of 6 mm. It also gave a zone of inhibition at 200 µg/mL (Staphylococcus aureus [7]) of 7 mm, a zone of inhibition at 200 µg/mL (Bacillus subtilis [8]) of 8 mm and a zone of inhibition at 200 µg/mL (Escherichia coli [9]) of 9 mm. For the same compound, the zone of inhibition at 100 µg/mL (Staphylococcus aureus [10]) was 7 mm.

For `O=C(c1cccnc1Nc1nc2ccccc2s1)N1CCN(CCO)CC1`, the zone of inhibition at 100 µg/mL (Candida albicans [1]) was 3 mm, the zone of inhibition at 100 µg/mL (Bacillus subtilis [2]) was 6 mm and the zone of inhibition at 100 µg/mL (Pseudomonas aeruginosa [3]) was 8 mm. The zone of inhibition at 100 µg/mL (Escherichia coli [4]) was 7 mm, the zone of inhibition at 200 µg/mL (Pseudomonas aeruginosa [5]) was 9 mm and the zone of inhibition at 200 µg/mL (Candida albicans [6]) was 5 mm. It also gave a zone of inhibition at 200 µg/mL (Staphylococcus aureus [7]) of 7 mm, a zone of inhibition at 200 µg/mL (Bacillus subtilis [8]) of 10 mm and a zone of inhibition at 200 µg/mL (Escherichia coli [9]) of 8 mm. The zone of inhibition at 100 µg/mL (Staphylococcus aureus [10]) was 6 mm.

Compound `Cc1cccc2sc(Nc3ncccc3C(=O)N3CCN(CCO)CC3)nc12` has a zone of inhibition at 100 µg/mL (Candida albicans [1]) of 0 mm, a zone of inhibition at 100 µg/mL (Bacillus subtilis [2]) of 7 mm and a zone of inhibition at 100 µg/mL (Pseudomonas aeruginosa [3]) of 6 mm. The zone of inhibition at 100 µg/mL (Escherichia coli [4]) was 3 mm, the zone of inhibition at 200 µg/mL (Pseudomonas aeruginosa [5]) was 7 mm and the zone of inhibition at 200 µg/mL (Candida albicans [6]) was 0 mm. The zone of inhibition at 200 µg/mL (Staphylococcus aureus [7]) was 5 mm, the zone of inhibition at 200 µg/mL (Bacillus subtilis [8]) was 10 mm and the zone of inhibition at 200 µg/mL (Escherichia coli [9]) was 7 mm. For the same compound, the zone of inhibition at 100 µg/mL (Staphylococcus aureus [10]) was 4 mm.

In the case of `COc1cccc2sc(Nc3ncccc3C(=O)N3CCNC(Cl)C3Cl)nc12` (stereo not given), the zone of inhibition at 100 µg/mL (Candida albicans [1]) is reported as 3 mm, the zone of inhibition at 100 µg/mL (Bacillus subtilis [2]) is reported as 8 mm and the zone of inhibition at 100 µg/mL (Pseudomonas aeruginosa [3]) is reported as 7 mm. The zone of inhibition at 100 µg/mL (Escherichia coli [4]) was 0 mm, the zone of inhibition at 200 µg/mL (Pseudomonas aeruginosa [5]) was 8 mm and the zone of inhibition at 200 µg/mL (Candida albicans [6]) was 4 mm. It also gave a zone of inhibition at 200 µg/mL (Staphylococcus aureus [7]) of 6 mm, a zone of inhibition at 200 µg/mL (Bacillus subtilis [8]) of 9 mm and a zone of inhibition at 200 µg/mL (Escherichia coli [9]) of 4 mm. It also gave a zone of inhibition at 100 µg/mL (Staphylococcus aureus [10]) of 6 mm.

Compound `O=C(c1cccnc1Nc1nc2ccc([N+](=O)[O-])cc2s1)N1CCN(CCO)CC1` has a zone of inhibition at 100 µg/mL (Candida albicans [1]) of 0 mm, a zone of inhibition at 100 µg/mL (Bacillus subtilis [2]) of 0 mm and a zone of inhibition at 100 µg/mL (Pseudomonas aeruginosa [3]) of 6 mm. It also gave a zone of inhibition at 100 µg/mL (Escherichia coli [4]) of 0 mm, a zone of inhibition at 200 µg/mL (Pseudomonas aeruginosa [5]) of 8 mm and a zone of inhibition at 200 µg/mL (Candida albicans [6]) of 2 mm. For the same compound, the zone of inhibition at 200 µg/mL (Staphylococcus aureus [7]) was 9 mm, the zone of inhibition at 200 µg/mL (Bacillus subtilis [8]) was 6 mm and the zone of inhibition at 200 µg/mL (Escherichia coli [9]) was 5 mm. It also gave a zone of inhibition at 100 µg/mL (Staphylococcus aureus [10]) of 8 mm.

`COc1ccc2nc(Nc3ncccc3C(=O)N3CCN(CCO)CC3)sc2c1` showed a zone of inhibition at 100 µg/mL (Candida albicans [1]) of 0 mm, a zone of inhibition at 100 µg/mL (Bacillus subtilis [2]) of 0 mm and a zone of inhibition at 100 µg/mL (Pseudomonas aeruginosa [3]) of 4 mm. The zone of inhibition at 100 µg/mL (Escherichia coli [4]) was 8 mm, the zone of inhibition at 200 µg/mL (Pseudomonas aeruginosa [5]) was 5 mm and the zone of inhibition at 200 µg/mL (Candida albicans [6]) was 5 mm. The zone of inhibition at 200 µg/mL (Staphylococcus aureus [7]) was 9 mm, the zone of inhibition at 200 µg/mL (Bacillus subtilis [8]) was 4 mm and the zone of inhibition at 200 µg/mL (Escherichia coli [9]) was 8 mm. For the same compound, the zone of inhibition at 100 µg/mL (Staphylococcus aureus [10]) was 8 mm.

Work on `Cc1ccc2nc(Nc3ncccc3C(=O)N3CCNC(Cl)C3Cl)sc2c1` (stereo not given) yielded a zone of inhibition at 100 µg/mL (Candida albicans [1]) of 2 mm, a zone of inhibition at 100 µg/mL (Bacillus subtilis [2]) of 0 mm and a zone of inhibition at 100 µg/mL (Pseudomonas aeruginosa [3]) of 0 mm. The zone of inhibition at 100 µg/mL (Escherichia coli [4]) was 3 mm, the zone of inhibition at 200 µg/mL (Pseudomonas aeruginosa [5]) was 0 mm and the zone of inhibition at 200 µg/mL (Candida albicans [6]) was 5 mm. It also gave a zone of inhibition at 200 µg/mL (Staphylococcus aureus [7]) of 4 mm, a zone of inhibition at 200 µg/mL (Bacillus subtilis [8]) of 0 mm and a zone of inhibition at 200 µg/mL (Escherichia coli [9]) of 3 mm. It also gave a zone of inhibition at 100 µg/mL (Staphylococcus aureus [10]) of 3 mm.
